# In US11472842B2 (Protagonist Therapeutics, Inc., priority 2015, dated 2022):
# Target: T1, human ferroportin (Homo sapiens, UniProt Q9NP59)
# T1 construct: expressed in transfected cells
# T1 sequence (Q9NP59 1-571): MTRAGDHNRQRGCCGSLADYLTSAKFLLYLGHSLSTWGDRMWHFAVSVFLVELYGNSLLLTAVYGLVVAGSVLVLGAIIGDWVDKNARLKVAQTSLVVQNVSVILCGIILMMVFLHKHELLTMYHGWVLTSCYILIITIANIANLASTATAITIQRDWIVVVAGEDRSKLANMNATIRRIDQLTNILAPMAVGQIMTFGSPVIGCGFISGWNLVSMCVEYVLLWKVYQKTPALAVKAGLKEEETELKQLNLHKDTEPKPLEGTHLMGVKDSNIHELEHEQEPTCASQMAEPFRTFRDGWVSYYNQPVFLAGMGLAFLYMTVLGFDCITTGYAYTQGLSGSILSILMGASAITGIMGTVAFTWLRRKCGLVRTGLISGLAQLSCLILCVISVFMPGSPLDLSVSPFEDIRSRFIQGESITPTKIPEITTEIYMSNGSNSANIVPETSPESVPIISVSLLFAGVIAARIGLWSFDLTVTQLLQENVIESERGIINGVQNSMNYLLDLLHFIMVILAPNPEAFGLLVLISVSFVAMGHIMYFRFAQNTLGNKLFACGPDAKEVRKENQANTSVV
# Assay: Ferroportin internalization / degradation, HEK-GFP cell based assay (HEK293 cells stably expressing ferroportin-GFP, decrease in GFP fluorescence)
# Conditions: Table 3 monomer analogues; ferroportin-GFP HEK293 cells, 18-24 h incubation; read-out: HEK-GFP cell based assay (potency EC50)
# Procedure: Peptide analogues were tested in vitro for induction of internalization of the human ferroportin protein. Following internalization, the […] are degraded. The assay measures a decrease in fluorescence of the receptor.
# The cDNA encoding the human ferroportin (SLC40A1) was cloned from a cDNA clone from Origene (NM_014585). The DNA encoding the ferroportin was amplified by PCR using primers also encoding terminal restriction sites for subcloning, but without the termination codon. The ferroportin receptor was subcloned into a mammalian GFP expression vector containing a neomycin (G418) resistance marker in such that the reading frame of the ferroportin was fused in frame with the GFP protein. The fidelity of the DNA encoding the protein was confirmed by DNA sequencing. HEK293 cells were used for transfection of the ferroportin-GFP receptor expression plasmid. The cells were grown according to standard protocol in growth medium and transfected with the plasmids using Lipofectamine (manufacturer's protocol, Invitrogen). […] The cells were propagated and frozen in aliquots.
# Compound was added to desired final concentration for at least 18 hours in the incubator. […] Compound was added to desired final concentration for at least 18 hours but no more than 24 hours in the incubator.
# The EC50 of these reference compounds for ferroportin degradation was determined according to the activity assay described above. These peptides served as control standards.
# These values were determined as described herein.
row,DC50,Compound
1,19 nM,CCCCCCCCCCCCCCCC(=O)NCCCC[C@@H]1NC(=O)[C@H](Cc2ccccc2)NC(=O)[C@H](CCCCN)NC(=O)[C@H]([C@@H](C)CC)NC(=O)[C@@H](NC(=O)[C@@H]2CCCN2C(=O)[C@H](Cc2ccccc2)NC(=O)[C@H](Cc2c[nH]cn2)NC(=O)[C@@H](NC(=O)[C@H](CC(=O)O)NC(=O)CC(C)C)[C@@H](C)O)CSSC[C@@H](C(=O)N[C@@H](CCCCN)C(N)=O)NC(=O)CNC(=O)[C@H](CCCCN)NC(=O)[C@H](CO)NC(=O)[C@H](CCCNC(=N)N)NC(=O)[C@@H]2CCCN2C1=O [Compound 20]
2,12 nM,"CCCCCCCCCCCCCCCC(=O)N[C@@H](CCC(=O)NCCCC[C@@H]1NC(=O)[C@H](Cc2ccccc2)NC(=O)[C@H](CCCCN)NC(=O)[C@H]([C@@H](C)CC)NC(=O)[C@@H](NC(=O)[C@@H]2CCCN2C(=O)[C@@H](NC(=O)[C@H](Cc2c[nH]cn2)NC(=O)[C@@H](NC(=O)[C@H](CC(=O)O)NC(=O)CC(C)C)[C@@H](C)O)C(c2ccccc2)c2ccccc2)CSSC[C@@H](C(=O)N[C@@H](CCCCN)C(N)=O)NC(=O)CNC(=O)[C@H](CCCCN)NC(=O)[C@H](CO)NC(=O)[C@H](CCCNC(=N)N)NC(=O)[C@@H]2CCCN2C1=O)C(=O)O [Compound 7, Isovaleric acid-DTH-[Dpa]-PCIKF-[Lys(IsoGlu-Palm)]-PRSKGCK-NH2]"
3,18 nM,CCCCCCCCCCCCCCCC(=O)NCCCCCC(=O)NCCCC[C@@H]1NC(=O)[C@H](Cc2ccccc2)NC(=O)[C@H](CCCCN)NC(=O)[C@H]([C@@H](C)CC)NC(=O)[C@@H](NC(=O)[C@@H]2CCCN2C(=O)[C@H](Cc2ccccc2)NC(=O)[C@H](Cc2c[nH]cn2)NC(=O)[C@@H](NC(=O)[C@H](CC(=O)O)NC(=O)CC(C)C)[C@@H](C)O)CSSC[C@@H](C(=O)N[C@@H](CCCCN)C(N)=O)NC(=O)CNC(=O)[C@H](CCCCN)NC(=O)[C@H](CO)NC(=O)[C@H](CCCNC(=N)N)NC(=O)[C@@H]2CCCN2C1=O [Compound 22]
4,11 nM,CCCCCCCCCCCCCCCC(=O)N[C@@H](CCC(=O)NCCCC[C@@H]1NC(=O)[C@H](Cc2ccccc2)NC(=O)[C@H](CCCCN)NC(=O)[C@H]([C@@H](C)CC)NC(=O)[C@@H](NC(=O)[C@@H]2CCCN2C(=O)[C@H](Cc2ccccc2)NC(=O)[C@H](Cc2c[nH]cn2)NC(=O)[C@@H](NC(=O)[C@H](CC(=O)O)NC(=O)CC(C)C)[C@@H](C)O)CSSC[C@@H](C(N)=O)NC(=O)CNC(=O)[C@H](CCCCN)NC(=O)[C@H](CO)NC(=O)[C@H](CCCNC(=N)N)NC(=O)[C@@H]2CCCN2C1=O)C(=O)O [Compound 9]
5,10 nM,CCCCCCCCCCCCCC(=O)N[C@@H](CCC(=O)NCCCC[C@@H]1NC(=O)[C@H](Cc2ccccc2)NC(=O)[C@H](CCCCN)NC(=O)[C@H]([C@@H](C)CC)NC(=O)[C@@H](NC(=O)[C@@H]2CCCN2C(=O)[C@H](Cc2ccccc2)NC(=O)[C@H](Cc2c[nH]cn2)NC(=O)[C@@H](NC(=O)[C@H](CC(=O)O)NC(=O)CC(C)C)[C@@H](C)O)CSSC[C@@H](C(=O)N[C@@H](CCCCN)C(N)=O)NC(=O)CNC(=O)[C@H](CCCCN)NC(=O)[C@H](CO)NC(=O)[C@H](CCCNC(=N)N)NC(=O)[C@@H]2CCCN2C1=O)C(=O)O [Compound 13]

# Second part, the compound before the results:
row,Compound,DC50
1,CCCCCCCCCCCCCCCC(=O)NCCOCCOCCC(=O)NCCCC[C@@H]1NC(=O)[C@H](Cc2ccccc2)NC(=O)[C@H](CCCCN)NC(=O)[C@H]([C@@H](C)CC)NC(=O)[C@@H](NC(=O)[C@@H]2CCCN2C(=O)[C@H](Cc2ccccc2)NC(=O)[C@H](Cc2c[nH]cn2)NC(=O)[C@@H](NC(=O)[C@H](CC(=O)O)NC(=O)CC(C)C)[C@@H](C)O)CSSC[C@@H](C(=O)N[C@@H](CCCCN)C(N)=O)NC(=O)CNC(=O)[C@H](CCCCN)NC(=O)[C@H](CO)NC(=O)[C@H](CCCNC(=N)N)NC(=O)[C@@H]2CCCN2C1=O [Compound 16],36 nM
2,"CCCCCCCCCCCCCCCC(=O)NCCCCCC(=O)N[C@@H](CCC(=O)NCCCC[C@@H]1NC(=O)[C@H]([C@@H](C)CC)NC(=O)[C@@H](NC(=O)[C@@H]2CCCN2C(=O)[C@H](Cc2ccccc2)NC(=O)[C@H](Cc2c[nH]cn2)NC(=O)[C@@H](NC(=O)[C@H](CC(=O)O)NC(=O)CC(C)C)[C@@H](C)O)CSSC[C@@H](C(=O)N[C@@H](CCCCN)C(N)=O)NC(=O)CN(C)C(=O)[C@H](CCCCN)NC(=O)[C@H](CO)NC(=O)[C@H](CCCNC(=N)N)NC(=O)[C@@H]2CCCN2C(=O)[C@H](CCC(=O)O)NC(=O)[C@H](Cc2ccccc2)NC1=O)C(=O)O [Compound 28, Isovaleric acid-DTHFPCI-[Lys(isoGlu-Ahx-Palm)]-FEPRSK-[Sar]-CK-NH2]",23 nM
3,"CCCCCCCCCCCCCCCC(=O)NCCCCCC(=O)NCCCC[C@@H]1NC(=O)[C@H]([C@@H](C)CC)NC(=O)[C@@H](NC(=O)[C@@H]2CCCN2C(=O)[C@H](Cc2ccccc2)NC(=O)[C@H](Cc2c[nH]cn2)NC(=O)[C@@H](NC(=O)[C@H](CC(=O)O)NC(=O)CC(C)C)[C@@H](C)O)CSSC[C@@H](C(=O)N[C@@H](CCCCN)C(N)=O)NC(=O)CN(C)C(=O)[C@H](CCCCN)NC(=O)[C@H](CO)NC(=O)[C@H](CCCNC(=N)N)NC(=O)[C@@H]2CCCN2C(=O)[C@H](CCC(=O)O)NC(=O)[C@H](Cc2ccccc2)NC1=O [Compound 23, Isovaleric acid-DTHFPCI-[Lys(Ahx-Palm)]-FEPRSK-[Sar]-CK-NH2]",6 nM

# Same assay, conditions: Table 9 reference compounds; read-out: Potency EC50
row,DC50,Compound
1,> 10000 nM,"CC[C@@H](C)[C@@H](NC(=O)[C@H](N)Cc1ccccc1)C(=O)N[C@H](CS)C(=O)N[C@@H](C(=O)N1CCC[C@@H]1C(=O)N[C@H](Cc1ccccc1)C(=O)N[C@H](Cc1c[nH]cn1)C(=O)N[C@@H](C(=O)N[C@H](CC(=O)O)C(N)=O)[C@H](C)O)[C@H](C)CC [RI-Mini Hepcidin, Hy-DPhe-DIle-DCys-DIle-DPro-DPhe-DHis-DThr-DAsp-NH2, reference compound]"
